Tested on: 252836-082-R-J2-PDC tumor spheroids, viability
Experiment: Anticancer human tumor 252836-082-R-J2-PDC patient-derived head and neck squamous cell carcinoma cell line growth inhibition [PI3K]
Conditions: spheroids with HUVEC and MSC; for IC50: curve of first compound; for viability, T/C: stronger effect = lower value
Procedure, shortened: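 We assembled tumor spheroids that included a stromal compartment of HUVEC and MSCs, then exposed them to targeted agents alone and together with PI3K pathway inhibitors. Concentration series descended by half-log from clinically achievable Cmax levels. Viability served as the endpoint.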

[1] = second compound 0.0316 µM, first compound 0.0316 µM
[2] = second compound 0.0316 µM, first compound 0.1 µM
[3] = second compound 0.0316 µM, first compound 0.316 µM
[4] = second compound 0.0316 µM, first compound 1 µM
[5] = second compound 0.1 µM, first compound 0.0316 µM
[6] = second compound 0.1 µM, first compound 0.1 µM
[7] = second compound 0.1 µM, first compound 0.316 µM
[8] = second compound 0.1 µM, first compound 1 µM
[9] = second compound 0.316 µM, first compound 0.0316 µM
[10] = second compound 0.316 µM, first compound 0.1 µM
[11] = second compound 0.316 µM, first compound 0.316 µM
[12] = second compound 0.316 µM, first compound 1 µM
[13] = second compound 1 µM, first compound 0.0316 µM
[14] = second compound 1 µM, first compound 0.1 µM
[15] = second compound 1 µM, first compound 0.316 µM
[16] = second compound 1 µM, first compound 1 µM
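Also: spheroids exposed to agents for seven days before readout.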
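For viability, T/C in this document: percent of vehicle DMSO control viability so 100% = untreated growth.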

## CC(Cn1ccc(-c2ccc(C#N)c(Cl)c2)n1)NC(=O)c1cc(C(C)O)[nH]n1 (centres undefined) + CC(Nc1ccc2c(c1)OCCn1cc(N3C(=O)OCC3C(F)F)nc1-2)C(N)=O
Second compound 0.00316 µM
  IC50: > 10 µM
Second compound 0.01 µM
  IC50: > 10 µM
Second compound 0.0316 µM
  IC50: > 10 µM
Second compound 0.1 µM
  IC50: > 10 µM
Second compound 0.316 µM
  IC50: > 10 µM
Second compound 1 µM
  IC50: < 0.0316 µM
Second compound 0.00316 µM, first compound 0.0316 µM
  viability, T/C: 94.1%
Second compound 0.00316 µM, first compound 0.1 µM
  viability, T/C: 88.5%
Second compound 0.00316 µM, first compound 0.316 µM
  viability, T/C: 97.6%
Second compound 0.00316 µM, first compound 1 µM
  viability, T/C: 94.7%
Second compound 0.00316 µM, first compound 3.16 µM
  viability, T/C: 98.7%
Second compound 0.00316 µM, first compound 10 µM
  viability, T/C: 90.6%
Second compound 0.01 µM, first compound 0.0316 µM
  viability, T/C: 102%
Second compound 0.01 µM, first compound 0.1 µM
  viability, T/C: 87.6%
Second compound 0.01 µM, first compound 0.316 µM
  viability, T/C: 87.6%
Second compound 0.01 µM, first compound 1 µM
  viability, T/C: 106%
Second compound 0.01 µM, first compound 3.16 µM
  viability, T/C: 90.7%
Second compound 0.01 µM, first compound 10 µM
  viability, T/C: 88.8%
[1]
  viability, T/C: 78.4%
[2]
  viability, T/C: 82.8%
[3]
  viability, T/C: 86.1%
[4]
  viability, T/C: 74.8%
Second compound 0.0316 µM, first compound 3.16 µM
  viability, T/C: 78.3%
Second compound 0.0316 µM, first compound 10 µM
  viability, T/C: 87.9%
[5]
  viability, T/C: 62.1%
[6]
  viability, T/C: 63.4%
[7]
  viability, T/C: 68.1%
[8]
  viability, T/C: 66.1%
Second compound 0.1 µM, first compound 3.16 µM
  viability, T/C: 66.1%
Second compound 0.1 µM, first compound 10 µM
  viability, T/C: 65.8%
[9]
  viability, T/C: 57.7%
[10]
  viability, T/C: 57.8%
[11]
  viability, T/C: 56.1%
[12]
  viability, T/C: 56.8%
Second compound 0.316 µM, first compound 3.16 µM
  viability, T/C: 56.8%
Second compound 0.316 µM, first compound 10 µM
  viability, T/C: 46.5%
[13]
  viability, T/C: 50.2%
[14]
  viability, T/C: 47.3%
[15]
  viability, T/C: 46.8%
[16]
  viability, T/C: 45.3%
Second compound 1 µM, first compound 3.16 µM
  viability, T/C: 49.9%
Second compound 1 µM, first compound 10 µM
  viability, T/C: 47.3%

## CCN1CCN(Cc2ccc(Nc3ncc(F)c(-c4cc(F)c5nc(C)n(C(C)C)c5c4)n3)nc2)CC1 + Cc1nc(NC(=O)N2CCCC2C(N)=O)sc1-c1ccnc(C(C)(C)C(F)(F)F)c1
Second compound 0.0316 µM
  IC50: > 1 µM
Second compound 0.1 µM
  IC50: > 1 µM
Second compound 0.316 µM
  IC50: > 1 µM
Second compound 1 µM
  IC50: > 1 µM
Second compound 3.16 µM
  IC50: < 0.00316 µM
Second compound 10 µM
  IC50: < 0.00316 µM
Second compound 0.0316 µM, first compound 0.00316 µM
  viability, T/C: 101%
Second compound 0.0316 µM, first compound 0.01 µM
  viability, T/C: 94.1%
[1]
  viability, T/C: 80.8%
[2]
  viability, T/C: 80.5%
[3]
  viability, T/C: 91.3%
[4]
  viability, T/C: 87%
Second compound 0.1 µM, first compound 0.00316 µM
  viability, T/C: 84.2%
Second compound 0.1 µM, first compound 0.01 µM
  viability, T/C: 85%
[5]
  viability, T/C: 77.8%
[6]
  viability, T/C: 80.2%
[7]
  viability, T/C: 85.7%
[8]
  viability, T/C: 86.3%
Second compound 0.316 µM, first compound 0.00316 µM
  viability, T/C: 67.8%
Second compound 0.316 µM, first compound 0.01 µM
  viability, T/C: 74.8%
[9]
  viability, T/C: 64.7%
[10]
  viability, T/C: 69.9%
[11]
  viability, T/C: 59%
[12]
  viability, T/C: 68%
Second compound 1 µM, first compound 0.00316 µM
  viability, T/C: 58.3%
Second compound 1 µM, first compound 0.01 µM
  viability, T/C: 74.9%
[13]
  viability, T/C: 59.4%
[14]
  viability, T/C: 61.9%
[15]
  viability, T/C: 62.5%
[16]
  viability, T/C: 46.4%
Second compound 3.16 µM, first compound 0.00316 µM
  viability, T/C: 49.1%
Second compound 3.16 µM, first compound 0.01 µM
  viability, T/C: 39.4%
Second compound 3.16 µM, first compound 0.0316 µM
  viability, T/C: 43.5%
Second compound 3.16 µM, first compound 0.1 µM
  viability, T/C: 40.2%
Second compound 3.16 µM, first compound 0.316 µM
  viability, T/C: 44.2%
Second compound 3.16 µM, first compound 1 µM
  viability, T/C: 43.1%
Second compound 10 µM, first compound 0.00316 µM
  viability, T/C: 35.4%
Second compound 10 µM, first compound 0.01 µM
  viability, T/C: 42.1%
Second compound 10 µM, first compound 0.0316 µM
  viability, T/C: 27.5%
Second compound 10 µM, first compound 0.1 µM
  viability, T/C: 40.1%
Second compound 10 µM, first compound 0.316 µM
  viability, T/C: 32%
Second compound 10 µM, first compound 1 µM
  viability, T/C: 21.1%

Reference: PubChem BioAssay AID1963985 (Molecular Pharmacology Branch, DTP, NCI, 2024)
